Assay results as given in US7947280B2 (priority 2003, dated 2011).
Entries after “also recorded” stand apart in the source; their conditions may differ.

What was measured:
[1] = target: T1, APJ (Homo sapiens, UniProt P35414); conditions: cited from earlier work
T1 sequence (P35414 1-380): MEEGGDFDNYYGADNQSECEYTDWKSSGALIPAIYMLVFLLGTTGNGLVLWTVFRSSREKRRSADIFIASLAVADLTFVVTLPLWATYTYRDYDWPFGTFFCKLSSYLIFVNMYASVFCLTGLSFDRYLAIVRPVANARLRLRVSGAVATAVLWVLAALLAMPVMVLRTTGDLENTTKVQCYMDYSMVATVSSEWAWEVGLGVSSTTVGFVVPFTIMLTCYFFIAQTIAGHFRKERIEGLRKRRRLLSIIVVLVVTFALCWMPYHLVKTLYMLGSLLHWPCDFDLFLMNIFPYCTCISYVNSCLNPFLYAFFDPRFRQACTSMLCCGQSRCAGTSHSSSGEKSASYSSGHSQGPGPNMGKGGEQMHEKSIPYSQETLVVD

[2] = tested on: superoxide production in aortic tissue of apoE knockout mice; test: Lucigenin-enhanced chemiluminescence of aortic superoxide; format: in vivo, mouse
Experimental: Lucigenin-enhanced chemiluminescence. Total aortic superoxide was measured by lucigenin-enhanced chemiluminescence as described previously. Aortas were harvested flushed with Krebs-HEPES buffer, opened longitudinally and divided into halves. Vessels were gassed with 95% oxygen/5% carbon dioxide in warmed Krebs-HEPES buffer for 30 minutes before measurements of chemiluminescence in a luminometer (manufacturer, location) using 20 μmol/L lucigenin. One half of each vessel was incubated in L-NAME (1 mmol/L). After measuring baseline readings for 4 minutes, samples were equilibrated and dark adapted for 5 mins, and chemiluminescence was recorded for 10 minutes. Recordings were performed blinded to the samples identity. Results were expressed as counts per second per milligram of tissue dry weight.

[3] = target: T2, AT1R (Rattus norvegicus, UniProt P25095); test: Competitive ligand binding with FAM-labeled AngII in HEK-293 cells; conditions: unlabeled ligand 100 nM; HEK-293 cells transfected with AT1R
T2 construct: expressed in transfected cells; host or cells: HEK-293
T2 sequence (P25095 1-359): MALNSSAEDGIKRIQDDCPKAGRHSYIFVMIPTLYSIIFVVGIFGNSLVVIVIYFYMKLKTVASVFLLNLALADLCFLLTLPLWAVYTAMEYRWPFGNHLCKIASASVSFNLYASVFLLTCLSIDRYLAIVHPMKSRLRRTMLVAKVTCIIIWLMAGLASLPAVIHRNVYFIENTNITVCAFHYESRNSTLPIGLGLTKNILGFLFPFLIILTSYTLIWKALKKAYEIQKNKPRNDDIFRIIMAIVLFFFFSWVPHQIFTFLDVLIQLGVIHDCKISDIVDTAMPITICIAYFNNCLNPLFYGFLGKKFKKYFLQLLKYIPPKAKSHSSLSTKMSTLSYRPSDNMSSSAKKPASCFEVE

[4] = tested on: ApoE-KO mice; test: AngII induced abdominal aortic aneurysm formation model; format: in vivo, mouse
Experimental: (§1) Animals. Mice were maintained in temperature-controlled (20° C. to 22° C.) environment with a 12-hour light-dark cycle. Sterile water and standard chow diet were available ad libitum. All mice were C57BL/6J ApoE-KO male mice (Jackson Laboratories, Bar Harbor, […].) between the ages of 8-12 weeks. […] Animal procedures were carried out in accordance with the Institutional Review Board Guidelines at Stanford University.
Abdominal aortic aneurysm formation, sudden death and vein graft procedure. […] Abdominal aortic aneurysm was defined as ≧50% enlargement of the maximal abdominal aorta diameter. Mice that were found dead without any preceding signs of suffering were defined as sudden death.

[5] = tested on: ApoE-KO mice; test: Vein graft neointimal hyperplasia model; format: in vivo, mouse; conditions: AngII infusion
Experimental: as §1

[6] = tested on: AT1R and APJ heterodimerization; test: AT1R-APJ receptor heterodimerization by immunoprecipitation; format: cell-based; conditions: AngII, 1 and 6 hours of treatment; co-transfected cells
Experimental: (§2) Cells were immediately lysed.
Immunoprecipitation and Western Blotting Immunoprecipitation was performed as previously described (REF). In brief, cells were lysed using 10× Cell Lysis Buffer (Cell Signaling Technologies CITY). Lysates were precleared with protein G and immunoprecipitation was performed with the respective antibodies at concentration of 1 mg/mL for 24 hrs at 4C. Protein G agarose was added and incubated for additional 2 hours. Western blotting on SDS-PAGE gels were performed as previously described, and the bands were visualized using the enhanced chemiluminescence system (Amersham Biosciences).

[7] = tested on: ApoE-KO mice; test: Atherosclerotic lesion analysis in ApoE-KO mice; format: in vivo, mouse
Experimental: Animals. Mice were maintained in temperature-controlled (20° C. to 22° C.) environment with a 12-hour light-dark cycle. […] All mice were C57BL/6J ApoE-KO male mice (Jackson Laboratories, Bar Harbor, […].) between the ages of 8-12 weeks. […] Animal procedures were carried out in accordance with the Institutional Review Board Guidelines at Stanford University.
Tissue preparation, histology and lesion quantification. Mice were euthanized 28 days following implantation of osmotic mini-pumps. The thoracic cage was removed and the animal perfused with phosphate buffered saline solution (PBS) for 2 minutes. The entire aorta and vein graft were exposed and the periadventitial tissue and scar tissue dissected and removed. Subsequently mice were perfusion fixed in situ with 4% phosphate-buffered paraformaldehyde. In some animals aorta and lung were removed fresh for biochemical assays.
Atherosclerotic Lesion Analysis Atherosclerosis lesion area was determined as described previously. Briefly, the arterial tree was perfused with PBS (pH 7.3) and then perfusion fixed with phosphate-buffered paraformaldehyde (3%, pH 7.3). The heart and full length of the aorta-to-iliac bifurcation was exposed and dissected carefully from any surrounding tissues. Aortas were then opened along the ventral midline and dissected free of the animal and pinned out flat, intimal side up, onto black wax. Aortic images were captured with a digital camera (DMC1) mounted on a Leica MZ6 stereomicroscope and analyzed using Fovea Pro (Reindeer Graphics, Asheville, N.C.). Percent lesion area was calculated as total lesion area divided by total surface area.

[8] = tested on: NFκB, NFAT, AP-1 and SRE reporter constructs; test: Luciferase reporter assays of AngII nuclear signaling in HEK-293 cells; format: cell-based; conditions: HEK-293 cells co-transfected with AT1; AngII stimulation
Description: cDNA Constructs APJ expression construct was purchased from cDNA.org. AT1R construct was obtained from Dr. Marc Caron. AT1R transcript was inserted into a pEGFP-N1 vector (Clonetech). The NF-kB and SRE luciferase reporter constructs were obtained from BD Biosciences.
as §2

[9] = target: T1, APJ; conditions: cited from earlier work; remark: listed apart in the source
[10] = tested on: C57B/16 mice; test: Magnetic resonance imaging after intraperitoneal apelin-12 injection; format: in vivo, mouse; conditions: post apelin-12 300 μg/kg intraperitoneal, one hour prior to scanning; n=9
Experimental: Magnetic resonance imaging. […] Platinum needle ECG leads were inserted subcutaneously. Respiration was monitored by means of a pneumatic pillow sensor positioned against the abdomen. Mouse body temperature was maintained during scanning at 37° C. by a flow of heated air thermostatically controlled by a rectal temperature probe. Magnetic resonance images were acquired on a 4.7T Oxford magnet controlled by a Varian Inova console (Varian, Palo Alto, Calif.) using a transmit-receive, quadrature, volume coil with an inner diameter of 3.5 cm. Image acquisition was gated to respiration and to the ECG R wave (SA Instruments, Stony Brook, N.Y.). Coronal and sagittal scout images led to the acquisition of multiple contiguous 1 mm thick, short axis slices orthogonal to the interventricular septum. […] Planimetry measurements of end diastolic and end systolic dimension were derived offline from short axis views of the left ventricle at the level of the papillary muscles using ImageJ software (National Institutes of Health, Bethesda, Md.). Ejection fraction was calculated as [[…]. Data Analysis. […] Exact p values are reported for all comparisons.

[11] = tested on: superoxide production in aortic sections; test: Dihydroethidium oxidative fluorescence microtopography; format: in vivo, mouse
Experimental: Oxidative fluorescent microtopography. Superoxide was detected in the layers of the vessel wall using fluorescent probe dihydroethidium as described previously. Fresh segments of upper descending thoracic aorta were frozen in OCT compound. […] Molecular Probes). Images were obtained on a confocal microscope (Bio-Rad MRC-1024 laser; filter settings: excitation filter 488 nm; emission filter 550 nm). 2-hydroxyethidium fluorescence was measured from high power (60× mag) images. Endothelium by quantifying fluorescence (intensity×area) on the luminal side of the internal elastic lamina, media between the internal and external elastic lamina, and adventitia outside the external elastic lamina. Quantification was performed using Image Pro Plus software (Media Cybernetics, Silver Springs, Md.). Medial Analysis was performed blind to the samples identity.

## angiotensin II (DRVYIHPF) [AngII, peptide infused to promote vascular disease and heart failure; AT1R ligand, reference compound]
[1]
  binding to APJ: does not bind
[2]; AngII infusion
  increase in total chemiluminescence (superoxide): 10 fold
[3]
  competition for binding of FAM-AngII (10 nM) to AT1R: competes
[4]; AngII for four weeks
  animals with aneurysm formation: 11/12
[4]; single agent infusion
  incidence of AAA formation within 4 weeks: 92%
[5]
  increase of vein graft wall area vs saline treated controls: 33%
[6]
  AT1R-APJ receptor heterodimerization: significantly enhanced
[7]; AngII 1.4 mg/kg/day, 4 week minipump infusion
  increase of descending aorta atherosclerosis vs saline treated controls: 82%
[7]; osmotic minipump during high fat diet exposure
  progression of atherosclerosis in aortic root (FIG. 17): do not alter
[8]
  reporter transcription (NFκB, NFAT, AP-1, SRE): significant increase

## H-Leu-Val-Gln-Pro-Arg-Gly-Ser-Arg-Asn-Gly-Pro-Gly-Pro-Trp-Gln-Gly-Gly-Arg Arg-Lys-Phe-Arg-Arg-Gln-Arg-Pro-Arg-Leu-Ser-His-Lys-Gly-Pro-Met-Pro-Phe-OH (H-LVQPRGSRNGPGPWQGGRRKFRRQRPRLSHKGPMPF-OH; listed as Homo sapiens) [apelin-36]
[9]
  activation of APJ: activate APJ

## COC(=O)[C@@H](N)CCCNC(=N)N[N+](=O)[O-] [L-NAME]
[2]; aorta from apelin treated mice, L-NAME 1 mmol/L
  increase in total superoxide production on incubation with L-NAME: 2 fold
[2]; aorta from saline, AngII or AngII+apelin treated animals, L-NAME 1 mmol/L
  total superoxide levels on incubation with L-NAME: not significantly different

## H-Arg-Pro-Arg-Leu-Ser-His-Lys-Gly-Pro-Met-Pro-Phe-OH [apelin-12]
[10]
  Ejection fraction: upward trend
  heart rate (inverse of R-R interval of electrocardiogram): significant increase
  left ventricular end diastolic area: significant reduction; also recorded: significantly decreased
[9]
  activation of APJ: activate APJ

## apelin-17
[9]
  activation of APJ: activate APJ

## COc1cc(C(C)=O)ccc1O [apocynain]
[11]; aortic sections from apelin treated mice
  total medial fluorescence after incubation with NADPH oxidase inhibitor: did not find this effect
[11]; aortic sections from saline, AngII and apelin+AngII treated mice, 50 μmol/l
  total medial fluorescence after incubation with NADPH oxidase inhibitor: dramatically reduced; also recorded: blocked
